Source: PMC9331150 (ACS Medicinal Chemistry Letters, 2022)

Columns and labels:
SARS-CoV-2 3CL^pro = SARS-CoV-2 3CL^pro (Severe acute respiratory syndrome coronavirus 2, UniProt P0DTD1); assay type: biochemical
HCoV 229E = assay type: cell-based
HCoV 229E 3CL^pro = HCoV 229E 3CL^pro (Human coronavirus 229E, UniProt P0C6U2); assay: biochemical; assay type: biochemical
rhinovirus infection = conditions: cited from earlier work
SARS-CoV-2 = conditions: read-out: EC50 against SARS-CoV-2; human bronchial epithelial cells; cited from earlier work

Sequence of HCoV 229E 3CL^pro (P0C6U2 2966-3267): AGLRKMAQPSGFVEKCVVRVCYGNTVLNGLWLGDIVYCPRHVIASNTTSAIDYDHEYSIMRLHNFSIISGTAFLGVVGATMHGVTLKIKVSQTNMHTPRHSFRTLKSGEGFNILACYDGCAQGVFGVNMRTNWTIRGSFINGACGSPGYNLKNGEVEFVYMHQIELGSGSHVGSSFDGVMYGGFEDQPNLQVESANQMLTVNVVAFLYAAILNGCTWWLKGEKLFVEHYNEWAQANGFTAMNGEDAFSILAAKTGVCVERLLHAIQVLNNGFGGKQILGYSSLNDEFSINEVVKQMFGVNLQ

Structure (SMILES): CC(C)(C)[C@H](NC(=O)C(F)(F)F)C(=O)N1C[C@H]2[C@@H]([C@H]1C(=O)N[C@@H](C[C@@H]1CCNC1=O)C(=O)C(=O)NC1CC1)C2(C)C [Compound 8]
- fold improvement / more potent than nirmatrelvir (IC50, SARS-CoV-2 and HCoV 229E 3CL^pro) (SARS-CoV-2 3CL^pro): approximately 2 fold
- fold less potent than nirmatrelvir (EC50, cell-based HCoV 229E) (HCoV 229E): 11 fold

Structure (SMILES): CC(C)(C)[C@H](NC(=O)C(F)(F)F)C(=O)N1C[C@H]2[C@@H]([C@H]1C(=O)N[C@@H](C[C@@H]1CCNC1=O)C(N)=O)C2(C)C [Compound 4]
- IC50 (HCoV 229E 3CL^pro): > 100 µM

Structure (SMILES): CC(C)(C)[C@H](NC(=O)C(F)(F)F)C(=O)N1C[C@H]2[C@@H]([C@H]1C(=O)N[C@H](CO)C[C@@H]1CCNC1=O)C2(C)C [Compound 3]
- IC50 (HCoV 229E 3CL^pro): > 100 µM

Structure (SMILES): CCOC(=O)/C=C/[C@H](C[C@@H]1CCNC1=O)NC(=O)[C@@H](CC(=O)[C@@H](NC(=O)c1cc(C)on1)C(C)C)Cc1ccc(F)cc1 [rupintrivir]
- efficacy against rhinovirus infection in phase 2 clinical trials (rhinovirus infection): lack of efficacy

Structure (SMILES): CC(C)(C)[C@H](NC(=O)C(F)(F)F)C(=O)N1C[C@H]2[C@@H]([C@H]1C(=O)N[C@@H](C[C@@H]1CCNC1=O)C(=O)COCc1ccccc1)C2(C)C [Compound 9]
- fold less potent than nirmatrelvir against HCoV 229E 3CL^pro (IC50) (HCoV 229E 3CL^pro): 3 fold
- fold less potent than nirmatrelvir (EC50, cell-based HCoV 229E) (HCoV 229E): approximately 2 fold

Structure (SMILES): CC(C)(C)[C@H](NC(=O)C(F)(F)F)C(=O)N1C[C@H]2[C@@H]([C@H]1C(=O)NCCC1CCNC1=O)C2(C)C (stereo partly drawn) [Compound 1]
- IC50 (HCoV 229E 3CL^pro): > 100 µM

Structure (SMILES): CC(C)(C)[C@H](NC(=O)C(F)(F)F)C(=O)N1C[C@H]2[C@@H]([C@H]1C(=O)N[C@H](C#N)C[C@@H]1CCNC1=O)C2(C)C [Nirmatrelvir]
- EC50 (SARS-CoV-2): 0.075 µM

Structure (SMILES): CC(C)(C)[C@H](NC(=O)C(F)(F)F)C(=O)N1C[C@H]2[C@@H]([C@H]1C(=O)N[C@H](C=O)C[C@@H]1CCNC1=O)C2(C)C [Compound 2]
- fold inhibitory activity improvement for HCoV 229E 3CL^pro compared to nirmatrelvir (HCoV 229E 3CL^pro; IC50 ratio vs nirmatrelvir): 9 fold
- fold less potent than nirmatrelvir (EC50, cell-based HCoV 229E) (HCoV 229E): ~4 fold

Structure (SMILES): COC(=O)[C@H](C[C@@H]1CCNC1=O)NC(=O)[C@@H]1[C@@H]2[C@H](CN1C(=O)[C@@H](NC(=O)C(F)(F)F)C(C)(C)C)C2(C)C [Compound 6]
- IC50 (HCoV 229E 3CL^pro): > 100 µM
